From PubChem BioAssay (NCI)
“And” between values parts separate entries of the source, which are not always exact repeats. Equal values may be shown once.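 A five-concentration, 48-hour dose response in 96-well plates underlies each endpoint, interpolated linearly between surrounding concentrations. GI50 marks 50% less growth. TGI denotes the concentration required for complete inhibition of growth.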

What was measured:
Assay in all cases: NCI anticancer screen, dose series, 48 h
DMS 114 small cell lung = system: DMS 114 small cell lung
DMS 273 small cell lung = system: DMS 273 small cell lung
LOX IMVI melanoma = system: LOX IMVI melanoma
LXFL 529 NSCLC = system: LXFL 529 NSCLC
OVCAR-4 ovarian = system: OVCAR-4 ovarian
SK-MEL-2 melanoma = system: SK-MEL-2 melanoma
SK-MEL-28 melanoma = system: SK-MEL-28 melanoma
SK-OV-3 ovarian = system: SK-OV-3 ovarian
SNB-75 CNS = system: SNB-75 CNS
T-47D breast = system: T-47D breast

| Structure (SMILES) | TGI (DMS 114 small cell lung) | TGI (DMS 273 small cell lung) [µM] | TGI (LOX IMVI melanoma) [µM] | TGI (LXFL 529 NSCLC) [µM] | TGI (OVCAR-4 ovarian) [µM] | TGI (SK-MEL-2 melanoma) | TGI (SK-MEL-28 melanoma) | TGI (SK-OV-3 ovarian) [µM] | TGI (SNB-75 CNS) | GI50 (LOX IMVI melanoma) [nM] | GI50 (LXFL 529 NSCLC) [nM] | GI50 (SNB-75 CNS) | GI50 (T-47D breast) [nM] | TGI (T-47D breast) [nM] |
| --- | --- | --- | --- | --- | --- | --- | --- | --- | --- | --- | --- | --- | --- | --- |
| CCCC/C=C/C1Cc2ccccc2CN1S(=O)(=O)c1ccc(C)cc1 (stereo unspecified) | 12.2 µM | 29.6 | 22.3 | 22.1 | 24.7 | > 100 µM | 22.7 µM | 90.6 | 37.5 µM | – | – | – | – | – |
| O=S(O)CCCCCSSCCCCSSCCCCCS(=O)O | > 100 µM | > 100 | > 100 | > 100 | > 100 | > 100 µM | > 100 µM | > 100 | > 100 µM | – | – | – | – | – |
| Cn1c2c(c3ccccc31)C1CCCCC1C1C(=O)NC(=O)C21 (stereo unspecified) | > 100 µM | – | > 100 | > 100 | > 100 | – | > 100 µM | > 100 | 71.3 µM | – | – | – | – | – |
| CC1C[C@H](OC(N)=O)C(C)CC1=O (stereo partly specified) | > 100 µM | > 100 | > 100 | > 100 | > 100 | > 100 µM | – | > 100 | > 100 µM | – | – | – | – | – |
| C[C@]12CCC[C@H](Cl)C1(O)C[C@H](C(=O)O)CC2 (stereo partly specified) | > 100 µM | > 100 | > 100 | > 100 | > 100 | > 100 µM | > 100 µM | > 100 | > 100 µM | – | – | – | – | – |
| CC1=CC(=O)CCC2(C)C1CC[C@@H]2OC=O (stereo partly specified) | > 100 µM | > 100 | > 100 | > 100 | > 100 | > 100 µM | > 100 µM | > 100 | > 100 µM | – | – | – | – | – |
| COc1ccc2oc3c4c2c1CCC4CCC3=O (stereo unspecified) | > 100 µM | > 100 | > 100 | > 100 | > 100 | > 100 µM | > 100 µM | > 100 | > 100 µM | – | – | – | – | – |
| CSC(C1c2ccccc2N(C)C2=NC(=O)N(C)C(=O)C21Cl)S(=O)(=O)c1ccc(C)cc1 (stereo unspecified) | > 100 µM | 75 | > 100 | 57.7 | > 100 | > 100 µM | 75.4 µM | > 100 | 75.9 µM | – | – | – | – | – |
| CN1C2(c3ccccc3)c3c(-c4ccccc4)sc(-c4ccccc4)c3C1(c1ccccc1)C1C(=O)N(c3ccccc3)C(=O)C12 (stereo unspecified) | > 100 µM | > 100 | > 100 | > 100 | > 100 | – | > 100 µM | > 100 | > 100 µM | – | – | – | – | – |
| CC(C)c1ccccc1NC(=O)C(=O)Cc1nc2ccccc2s1 | > 100 µM | > 100 | – | > 100 | > 100 | > 100 µM | > 100 µM | > 100 | > 100 µM | – | – | – | – | – |
| CCNCC(=O)O[C@]1(CC)C(=O)OCc2c1cc1n(c2=O)Cc2cc3ccccc3nc2-1 | 2.53 µM | 0.328 | 1.22 | 42.6 | 8.84 | 7.92 µM | > 55.5 µM | 10.8 | 7.91 µM | – | – | – | – | – |
| CCOC(=O)C(=O)Nc1ccc(C)cc1C | > 100 µM | – | > 100 | > 100 | > 100 | > 100 µM | > 100 µM | > 100 | – | – | – | – | – | – |
| CC(=O)C1CC=C(C)CC1 (stereo unspecified) | > 100 µM | > 100 | > 100 | > 100 | > 100 | > 100 µM | > 100 µM | > 100 | > 100 µM | – | – | – | – | – |
| COC(=O)C1=C(C(=O)OC)C2(OC(C)=O)c3ccccc3-c3ccccc3C12 (stereo unspecified) | 9.89 µM | 9.61 | 9.51 | 3.38 | 6.48 | 29.2 µM | 11.9 µM | 29.1 | 24.4 µM | – | – | – | – | – |
| Brc1ccc(-c2nnc(-c3nn(-c4ccccc4)c4nc5ccccc5nc34)o2)cc1 | > 100 µM | > 100 | > 100 | > 100 | > 100 | > 100 µM | > 100 µM | > 100 | > 100 µM | – | – | – | – | – |
| CCn1cc(/C=C/C(C)c2cn(CC)c(=O)[nH]c2=O)c(=O)[nH]c1=O (stereo unspecified) | > 100 µM | > 100 | > 100 | > 100 | > 100 | > 100 µM | > 100 µM | > 100 | > 100 µM | – | – | – | – | – |
| CC[C@H]1CN2CCc3cc(OC)c(OC)cc3[C@@H]2C[C@@H]1C[C@H]1NCCc2cc(O)c(OC)cc21 | 0.0247 µM and 0.0373 µM | – | 0.0134 | – | – | 0.0493 µM and 0.0294 µM and 0.0532 µM | 0.0678 µM and 0.0487 µM and 0.266 µM | – | 0.0735 µM and 0.147 µM and 0.0944 µM | 4.37 | 11.8 | 15.5 nM and 25 nM | 22 | 77.6 |
| CC(=O)O/N=C/c1ncccc1OC(C)=O | > 100 µM | > 100 | > 100 | > 100 | > 100 | > 100 µM | > 100 µM | > 100 | > 100 µM | – | – | – | – | – |
